According to US11732003B2, “Mechanical method of maintaining narrow residence time distributions in continuous flow systems” (priority 2017, dated 2023):

System: Phi6
Experiment: Static detergent-based virus inactivation, plaque assay for infectivity
Type: cell-based, bacteriophage virus
Experimental: The purpose of this study was to examine detergent-based virus inactivation kinetics. In this representative experiment, two different concentrations (0.1% and 1.0% v/v) of a detergent, Triton X-100, were used to inactivate a bacteriophage virus, Phi6.
The virus spike was added and vortexed to ensure a well-mixed system. […] Detergent was added to reach the desired concentrations of 0.1% and 1.0% v/v. At various time points, a sample was removed and quenched by adding it to buffer at a 1:1000 dilution ratio. The tubes were vortexed after the detergent addition.

Measured: Phi6 LRV

Triton X-100
≥6.2: 1.0% v/v Triton X-100, mAb 15 mg/mL, inactivation time 1 min | 1.0% v/v Triton X-100, mAb 15 mg/mL, inactivation time 2 min | 1.0% v/v Triton X-100, mAb 15 mg/mL, inactivation time 3 min | 1.0% v/v Triton X-100, mAb 15 mg/mL, inactivation time 4 min | 1.0% v/v Triton X-100, mAb 15 mg/mL, inactivation time 5 min | 1.0% v/v Triton X-100, mAb 15 mg/mL, inactivation time 15 min | 1.0% v/v Triton X-100, mAb 15 mg/mL, inactivation time 30 min
≥5.2: 0.1% v/v Triton X-100, mAb 15 mg/mL, inactivation time 1 min | 0.1% v/v Triton X-100, mAb 15 mg/mL, inactivation time 2 min | 0.1% v/v Triton X-100, mAb 15 mg/mL, inactivation time 3 min | 0.1% v/v Triton X-100, mAb 15 mg/mL, inactivation time 4 min | 0.1% v/v Triton X-100, mAb 15 mg/mL, inactivation time 5 min | 0.1% v/v Triton X-100, mAb 15 mg/mL, inactivation time 15 min | 0.1% v/v Triton X-100, mAb 15 mg/mL, inactivation time 30 min
